Test results reported in ChEMBL document CHEMBL1131511, “Potent HIV protease inhibitors incorporating high-affinity P2-ligands and (R)-(hydroxyethylamino)sulfonamide isostere” (Bioorg Med Chem Lett, 1998).

Tests used:
MT4 = experiment: Compound was tested for the inhibition of HIV-1 in MT-4 human T-lymphoid cells infected with IIIB isolate; format: functional; settings: read-out: ID50 (the source's name)
[1] = molecular target: Human immunodeficiency virus type 1 protease (Human immunodeficiency virus 1, UniProt Q72874); experiment: Inhibitory activity against HIV-1 protease

SMILES	IC50 (MT4) [nM]	Ki [1] [nM]
CC(C)CN(C[C@@H](O)[C@H](Cc1ccccc1)NC(=O)O[C@H]1CCOC1)S(=O)(=O)c1ccc(N)cc1	15	1.6
CC(C)CN(C[C@@H](O)[C@H](Cc1ccccc1)NC(=O)O[C@H]1CO[C@H]2OCC[C@H]21)S(=O)(=O)c1ccc(N)cc1	4.5	–
Cc1ccc(S(=O)(=O)N(CC(C)C)C[C@@H](O)[C@H](Cc2ccccc2)NC(=O)O[C@H]2CO[C@H]3OCC[C@H]32)cc1	3.5	1.2
COc1ccc(S(=O)(=O)N(CC(C)C)C[C@@H](O)[C@H](Cc2ccccc2)NC(=O)O[C@H]2CCOC2)cc1	12	1.5
COc1ccc(S(=O)(=O)N(CC(C)C)C[C@@H](O)[C@H](Cc2ccccc2)NC(=O)O[C@H]2CCS(=O)(=O)C2)cc1	19	1.2
COc1ccc(S(=O)(=O)N(CC(C)C)C[C@@H](O)[C@H](Cc2ccccc2)NC(=O)O[C@H]2CCSC2)cc1	47	2.5
COc1ccc(S(=O)(=O)N(CC(C)C)C[C@@H](O)[C@H](Cc2ccccc2)NC(=O)O[C@@H]2CCS(=O)(=O)[C@@H]2C(C)C)cc1	18	1.4
CC(C)CN(C[C@@H](O)[C@H](Cc1ccccc1)NC(=O)O[C@@H]1CCS(=O)(=O)[C@@H]1C(C)C)S(=O)(=O)c1ccc(N)cc1	40	1.5
COc1ccc(S(=O)(=O)N(CC(C)C)C[C@@H](O)[C@H](Cc2ccccc2)NC(=O)O[C@@H]2CO[C@@H]3OCCC[C@@H]32)cc1	4.5	2.2
COc1ccc(S(=O)(=O)N(CC(C)C)C[C@@H](O)[C@H](Cc2ccccc2)NC(=O)O[C@H]2CO[C@H]3OCC[C@H]32)cc1	1.4	1.1
